The nature of the data set: solubility of the active compound (I) in water. Type of data set: physicochemical. The protocol:
During the development of formulations, the physicochemical characteristics have to be taken into account in combination with the particular biological properties of the active compound (I). The physicochemical characteristics include, for example, the poor solubility of the active compound (I) in water (about 7 mg/l). The particular biological properties of the active compound (I) are a food-dependent bioavailability (the “food effect”) which, in the case of rapid-release tablet formulations, is noticeable at dosages from about 15 mg, and a limited absorption from the lower sections of the intestine. As a consequence, the desired administration once daily requires specific pharmaceutical formulations releasing the active compound (I) taking into account its biopharmaceutical characteristics, such that on the one hand the active compound (I) is present in an amount sufficient to have a pharmaceutical effect and that on the other hand the active compound (I) is released in a manner such that its challenging properties with respect to solubility, food effect and absorption are overcome.

A word on the solubility: it is the dissolved amount per volume that the medium holds.

SMILES strings stand for the structures.

Consider `O=C(NC[C@H]1CN(c2ccc(N3CCOCC3=O)cc2)C(=O)O1)c1ccc(Cl)s1` [active compound (I), 5-chloro-N-({(5S)-2-oxo-3-[4-(3-oxo-4-morpholinyl)phenyl]-1,3-oxazolidin-5-yl}methyl)-2-thiophenecarboxamide], for which the solubility is approximately 7 µg/mL.
